Experiments:
[1] = Peptide degradation assay in HeLa lysates, RP-HPLC; conditions: 30 μM peptide, HeLa lysates 2 mg/mL, 10 mM Tris-HCl pH 7.6, 37°C, HPLC UV 442 nm
[2] = system: HeLa cells

| entry into intact cells (permeability) [2] | Compound | time within which the peptide was mostly degraded [1] [min] |
| --- | --- | --- |
| – | N=C(N)NCCC[C@H](NC(=O)[C@H](CCCNC(=N)N)NC(=O)[C@H](CCCNC(=N)N)NC(=O)[C@H](CCC(N)=O)NC(=O)[C@H](CCCNC(=N)N)NC(=O)[C@H](CCCNC(=N)N)NC(=O)[C@H](CCCCN)NC(=O)[C@H](CCCCN)NC(=O)[C@H](CCCNC(=N)N)NC(=O)CNC(=O)[C@H](Cc1ccc(O)cc1)NC(=O)c1ccc2c(c1)C(=O)OC21c2ccc(O)cc2Oc2cc(O)ccc21)C(N)=O [TAT] | ≤ 30 |
| found to enter intact HeLa cells | Ac-RWVKVpGOWIKQ-NH2 [WKWK] | – |

— PMC6605100 (Peptide science (Hoboken, N.J.), 2018)
